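Briefly, cells in 96-well plates were exposed to five compound concentrations for 48 h, and endpoints were estimated by linear interpolation. GI50 = concentration required for 50% inhibition of growth. Definition used: TGI = concentration required for complete inhibition of growth.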
Assays:
Experiment in all cases: NCI-60 cell line screen, 48 h
[1] = tested on: HOP-62 NSCLC
[2] = tested on: OVCAR-5 ovarian
[3] = tested on: NCI-H460 lung
[4] = tested on: U251 CNS
[5] = tested on: RPMI-8226 leukemia
[6] = tested on: HCT-15 colon
[7] = tested on: NCI/ADR-RES ovarian
[8] = tested on: SW-620 colon
[9] = tested on: KM12 colon
[10] = tested on: NCI-H23 lung
[11] = tested on: SR leukemia
[12] = tested on: PC-3 prostate
[13] = tested on: ACHN renal
[14] = tested on: HL-60(TB) leukemia
[15] = tested on: SK-MEL-2 melanoma
[16] = tested on: K-562 leukemia
[17] = tested on: T-47D breast
[18] = tested on: CAKI-1 renal
[19] = tested on: HT29 colon
[20] = tested on: LOX IMVI melanoma
[21] = tested on: SN12C renal
[22] = tested on: OVCAR-3 ovarian
[23] = tested on: UACC-62 melanoma
[24] = tested on: NCI-H522 lung
[25] = tested on: MDA-MB-435
[26] = tested on: SK-MEL-5 melanoma
[27] = tested on: M14 melanoma
[28] = tested on: NCI-H226 lung
[29] = tested on: MOLT-4 leukemia
[30] = tested on: DU-145 prostate
[31] = tested on: A549 NSCLC
[32] = tested on: OVCAR-4 ovarian
[33] = tested on: SK-OV-3 ovarian
[34] = tested on: SF-539 CNS
[35] = tested on: TK-10 renal
[36] = tested on: A498 renal
[37] = tested on: UACC-257 melanoma
[38] = tested on: SF-268 CNS
[39] = tested on: HCT-116 colon
[40] = tested on: SF-295 CNS
[41] = tested on: CCRF-CEM leukemia
[42] = tested on: OVCAR-8 ovarian
[43] = tested on: UO-31 renal
[44] = tested on: 786-0 renal
[45] = tested on: HS 578T breast
[46] = tested on: SNB-75 CNS
[47] = tested on: MALME-3M melanoma
[48] = tested on: MCF7 breast
[49] = tested on: MDA-MB-231 breast
[50] = tested on: SNB-19 CNS
[51] = tested on: SK-MEL-28 melanoma
[52] = tested on: COLO 205 colon
[53] = tested on: HCC-2998 colon
[54] = tested on: IGROV1 ovarian
[55] = tested on: EKVX NSCLC
[56] = tested on: RXF 393 renal

`COc1ccc2c(c1)/C(=N/OC(C)=O)c1c-2c(Nc2cccc(/C(C)=N/OC(C)=O)c2)nc2ccccc12` gave a GI50 [1] of 37.6 µM, a TGI [1] of over 100 µM and a GI50 [2] of over 100 µM. It also gave a TGI [2] of over 100 µM, a GI50 [3] of 97.4 µM and a TGI [3] of over 100 µM. It also gave a GI50 [4] of 32.4 µM, a TGI [4] of over 100 µM and a GI50 [5] of 64.6 µM. It also gave a TGI [5] of over 100 µM, a GI50 [6] of over 100 µM and a TGI [6] of over 100 µM. For the same compound, the GI50 [7] was 55.3 µM, the TGI [7] was over 100 µM and the GI50 [8] was 47.5 µM. It also gave a TGI [8] of over 100 µM, a GI50 [9] of 48.9 µM and a TGI [9] of over 100 µM. It also gave a GI50 [10] of 35 µM, a TGI [10] of over 100 µM and a GI50 [11] of 94.4 µM. It also gave a TGI [11] of over 100 µM, a GI50 [12] of 21.1 µM and a TGI [12] of 41.5 µM. For the same compound, the GI50 [13] was 21.4 µM, the TGI [13] was 61 µM and the GI50 [14] was over 100 µM. It also gave a TGI [14] of over 100 µM, a GI50 [15] of 59.1 µM and a TGI [15] of over 100 µM. For the same compound, the GI50 [16] was 37.9 µM, the TGI [16] was over 100 µM and the GI50 [17] was 37.3 µM. The TGI [17] was over 100 µM, the GI50 [18] was 27.3 µM and the TGI [18] was 55.9 µM. For the same compound, the GI50 [19] was over 100 µM, the TGI [19] was over 100 µM and the GI50 [20] was 67.7 µM. For the same compound, the TGI [20] was over 100 µM, the GI50 [21] was 48.8 µM and the TGI [21] was over 100 µM. For the same compound, the GI50 [22] was 56.5 µM, the TGI [22] was over 100 µM and the GI50 [23] was over 100 µM. The TGI [23] was over 100 µM, the GI50 [24] was 35 µM and the TGI [24] was over 100 µM. The GI50 [25] was over 100 µM, the TGI [25] was over 100 µM and the GI50 [26] was 60.2 µM. The TGI [26] was over 100 µM, the GI50 [27] was over 100 µM and the TGI [27] was over 100 µM. For the same compound, the GI50 [28] was 86.3 µM, the TGI [28] was over 100 µM and the GI50 [29] was 25.8 µM. For the same compound, the TGI [29] was 62.6 µM, the GI50 [30] was 29.5 µM and the TGI [30] was 85.6 µM. For the same compound, the GI50 [31] was 31.1 µM, the TGI [31] was over 100 µM and the GI50 [32] was 86.6 µM. The TGI [32] was over 100 µM, the GI50 [33] was over 100 µM and the TGI [33] was over 100 µM. It also gave a GI50 [34] of 63.9 µM, a TGI [34] of over 100 µM and a GI50 [35] of 77.6 µM. The TGI [35] was over 100 µM, the GI50 [36] was 57.3 µM and the TGI [36] was over 100 µM. The GI50 [37] was 36.2 µM, the TGI [37] was over 100 µM and the GI50 [38] was 39 µM. The TGI [38] was over 100 µM, the GI50 [39] was 41.5 µM and the TGI [39] was over 100 µM. For the same compound, the GI50 [40] was 29.9 µM, the TGI [40] was over 100 µM and the GI50 [41] was 84.6 µM. For the same compound, the TGI [41] was over 100 µM, the GI50 [42] was 17 µM and the TGI [42] was 58.4 µM. It also gave a GI50 [43] of over 100 µM, a TGI [43] of over 100 µM and a GI50 [44] of 37 µM. For the same compound, the TGI [44] was over 100 µM, the GI50 [45] was 40.3 µM and the TGI [45] was over 100 µM. The GI50 [46] was 30.9 µM, the TGI [46] was 64.5 µM and the GI50 [47] was 96.4 µM. It also gave a TGI [47] of over 100 µM, a GI50 [48] of 85.1 µM and a TGI [48] of over 100 µM. For the same compound, the GI50 [49] was over 100 µM, the TGI [49] was over 100 µM and the GI50 [50] was 55.4 µM. The TGI [50] was over 100 µM, the GI50 [51] was over 100 µM and the TGI [51] was over 100 µM. For the same compound, the GI50 [52] was over 100 µM, the TGI [52] was over 100 µM and the GI50 [53] was 70.8 µM. The TGI [53] was over 100 µM, the GI50 [54] was 47.5 µM and the TGI [54] was over 100 µM. The GI50 [55] was 21.9 µM, the TGI [55] was 53.1 µM and the GI50 [56] was 13.4 µM. For the same compound, the TGI [56] was 40.7 µM.
